Series [1] in a line: pKa measurement of cationic lipid (TNS fluorescence). It is filed as physicochemical. The conditions noted are these: pKa of the cationic lipid of formula (I), Table 4. On the procedure:
Unless indicated otherwise, all pKa's referred to herein were measured at standard temperature and pressure. Also, unless otherwise indicated, all references to pKa are references to pKa measured using the following technique. 2 mM solution of lipid in ethanol was prepared by weighing the lipid and then dissolving it in ethanol. 0.3 mM solution of fluorescent probe TNS in ethanol:methanol 9:1 was prepared by first making 3 mM solution of TNS in methanol and then diluting to 0.3 mM with ethanol. An aqueous buffer containing 200 mM sodium phosphate dibasic and 100 mM citric acid was prepared. […] Using the Hamilton Microlab Star high throughput liquid handler and Hamilton run control software Software, 7.5 uL of probe/lipid mix were added to 242.5 uL of buffer in a 1 mL 96 well plate (model NUNC 260252, […] Nunc International). This was done with all twelve buffers. After mixing in 1 mL 96 well plate, 100 uL of each probe/lipid/buffer mixture was transferred to a 250 uL black with clear bottom 96 well plate (model COSTAR 3904, Corning). The fluorescence measurements are carried out on the SpectraMax M5 spectrophotometer using software SoftMax pro 5.2 and following parameters: After the measurement, the background fluorescence value of an empty well on the 96 well plate was subtracted from each probe/lipid/buffer mixture. The fluorescence intensity values were then normalized to the value at lowest pH. The normalized fluorescence intensity vs. pH chart was then plotted in the Microsoft Excel software. The twelve points were connected with a smooth line. The point on the line at which the normalized fluorescence intensity was equal to 0.5 was found. […] The pKa determined using this method is precise to about 0.1 pKa units.

Series [2] concerns plasma Factor VII enzyme activity. The experiment in a line: Mouse Factor VII dosing / Factor VII Activity Assay. It is filed as in vivo. The conditions noted are these: percent knock down of plasma Factor VII activity, CD-1 mice, 48 h; for KD FVII 0.03 mg/kg: single IV dose 0.03 mg/kg; for KD FVII 0.3 mg/kg: single IV dose 0.3 mg/kg. As to the method:
Female CD-1 mice were received from Harlan Labs and maintained on standard lab chow and water ad libitum. The animals weighed approximately 25 grams at time of dosing. Formulated Factor VII siRNA was administered as a single dose intravenously via the lateral tail vein. Approximately 48 hours after injection, the mice were euthanized by CO2 inhalation followed by exsanguination through the vena cava. […] Plasma collected from injected mice was assayed for Factor VII enzyme activity using the Biophen FVII kit from Hyphen Biomedical (catalog number 221304). An assay standard curve was prepared using pooled plasma aliquots from the vehicle control animals. All samples were diluted to fall within the linear range of the standard curve and Factor VII activity relative to control plasma was reported. Lipid nanoparticles comprising lipid compounds of formula (I) and the FVII siRNA duplex sequence listed above were tested in the Factor VII Activity Assay. The results of this assay are given in Table 4 below as a percent knock down of plasma Factor VII enzyme activity at a dose of 0.3 mg/kg and 0.03 mg/kg.

Setting [3] is: LNP Chol/DSPC/PEG-DMG 45/44/9/2.

18 molecules from patent US10124065B2, “Lipids and lipid compositions for the delivery of active agents” (Novartis AG, priority 2013, dated 2018) can be followed below.

Read-outs that look alike come from different tables or passages of the source.

Usually pKa stands for the pH at which an ionisable group is half protonated.

In turn, `CCCCCCCC(=O)OCCCCCCCCCC(=O)OCc1cc(COC(=O)CCCCCCCCCOC(=O)CCCCCCC)cc(CN(C)C)c1` [Example 86, (5-((dimethylamino)methyl)-1,3-phenylene)bis(methylene)bis(10-(octanoyloxy)decanoate)] returned a pKa in series [1] (listed as Ex. 86) of 5.81. Also, in series [2] (LNP Chol/DSPC/S010 45/44/9/2), the “KD FVII 0.03 mg/kg” value is on record as 0%. In series [2] (setting [3]), the “KD FVII 0.3 mg/kg” value is 55.3%.
Take `CCCCCC(CCCCC)CCCCCCCC(=O)OCc1cc(COC(=O)CCCCCCCC(CCCCC)CCCCC)cc(CN(C)C)c1` [Ex. 119, (5-((dimethylamino)methyl)-1,3-phenylene)bis(methylene)bis(9-pentyltetradecanoate)]: the pKa in series [1] (probe TNS, read-out: pKa) stood at 5.84. For the same molecule, the “KD FVII 0.03 mg/kg” value in series [2] (setting [3]) stood at 7.8%.
Regarding `CCCCCCCC(CCCCCCC)CCCC(=O)OCCCCOc1cc(CN(C)C)cc(OCCCCOC(=O)CCCC(CCCCCCC)CCCCCCC)c1` [Ex. 115, ((5-((dimethylamino)methyl)-1,3-phenylene)bis(oxy))bis(butane-4,1-diyl)bis(5-heptyldodecanoate)], in series [1] (probe TNS, read-out: pKa), the pKa was 5.87. For the same molecule, the “KD FVII 0.03 mg/kg” value in series [2] (setting [3]) stood at 78%.
The like results for `CCCCCCCCC(CCCCCCCC)CC(=O)OCCCCOc1cc(CN(C)C)cc(OCCCCOC(=O)CC(CCCCCCCC)CCCCCCCC)c1` [Ex. 116, ((5-((dimethylamino)methyl)-1,3-phenylene)bis(oxy))bis(butane-4,1-diyl)bis(3-octylundecanoate)] were, in that order, 5.67 and 29%.
In turn, `CCCCCCCCCCCC(=O)OCCCCCCCCOc1cc(CN(C)C)cc(OCCCCCCCCOC(=O)CCCCCCCCCCC)c1` [Example 53, ((5-((dimethylamino)methyl)-1,3-phenylene)bis(oxy))bis(octane-8,1-diyl)didodecanoate] displayed a pKa in series [1] (listed as Ex. 53) of 5.84. In addition, in series [2] (setting [3]), the “KD FVII 0.3 mg/kg” value is on record as 96.6%.
`CCCCCCCCC(CCCCCCCC)CC(=O)OCCCOc1cc(CN(C)C)cc(OCCCOC(=O)CC(CCCCCCCC)CCCCCCCC)c1` [Example 56, ((5-((dimethylamino)methyl)-1,3-phenylene)bis(oxy))bis(propane-3,1-diyl)bis(3-octylundecanoate)] displayed a pKa in series [1] (listed as Ex. 56) of 5.71. In series [2] (setting [3]), the “KD FVII 0.3 mg/kg” value was 71.0%.
With `CCCCC/C=C\C/C=C\CCCCCCCC(=O)OCCCCOc1cc(CCCN2CCOCC2)cc(OCCCCOC(=O)CCCCCCC/C=C\C/C=C\CCCCC)c1` [Ex. 122, (9Z,9′Z,12Z,12′Z)-((5-(3-morpholinopropyl)-1,3-phenylene)bis(oxy))bis(butane-4,1-diyl)bis(octadeca-9,12-dienoate)], in series [1] (probe TNS, read-out: pKa), the pKa came out at 5.06.
Regarding `CCCCCCC(CCCCCC)CCCCCC(=O)OCCCCOc1cc(CN(C)C)cc(OCCCCOC(=O)CCCCCC(CCCCCC)CCCCCC)c1` [Ex. 113, ((5-((dimethylamino)methyl)-1,3-phenylene)bis(oxy))bis(butane-4,1-diyl)bis(7-hexyltridecanoate)], the pKa in series [1] (probe TNS, read-out: pKa) stood at 6.03. The “KD FVII 0.03 mg/kg” value in series [2] (setting [3]) was determined as 57.6%.
As to `CCCCC/C=C\CC=CCCCCCCCC(=O)OCCCCOc1cc(CN(C)C)cc(OCCCCOC(=O)CCCCCCCC=CC/C=C\CCCCC)c1C` [Example 51, (9Z,9′Z,12Z,12′Z)-((5-((dimethylamino)methyl)-2-methyl-1,3-phenylene)bis(oxy))bis(butane-4,1-diyl)bis(octadeca-9,12-dienoate)], the pKa in series [1] (probe TNS, read-out: pKa) stood at 5.91.
On to `CCCCCCCC(=O)OCC(COC(=O)CCCCCCC)OCCCCOc1cc(CN(C)C)cc(OCCCCOC(COC(=O)CCCCCCC)COC(=O)CCCCCCC)c1` [Ex. 125, ((((5-((dimethylamino)methyl)-1,3-phenylene)bis(oxy))bis(butane-4,1-diyl))bis(oxy))bis(propane-3,2,1-triyl)tetraoctanoate], for which the pKa in series [1] (probe TNS, read-out: pKa) stood at 5.75.
Take `CCCCCC(CCCCC)CCCCCCCC(=O)OCCCCOc1cc(CN(C)C)cc(OCCCCOC(=O)CCCCCCCC(CCCCC)CCCCC)c1` [Ex. 114, ((5-((dimethylamino)methyl)-1,3-phenylene)bis(oxy))bis(butane-4,1-diyl)bis(9-pentyltetradecanoate)]: the pKa in series [1] (probe TNS, read-out: pKa) was 5.97. Moreover, the “KD FVII 0.03 mg/kg” value in series [2] (setting [3]) worked out at 44%.
In the case of `CCCCC/C=C\C/C=C\CCCCCCCC(=O)OCc1cc(COC(=O)CCCCCCC/C=C\C/C=C\CCCCC)cc(CN(C)C)c1` [Example 33, (9Z,9′Z,12Z,12′Z)-(5-((dimethylamino)methyl)-1,3-phenylene)bis(methylene)bis(octadeca-9,12-dienoate)], the pKa in series [1] (listed as Ex. 33) worked out at 5.75. Further, the “KD FVII 0.3 mg/kg” value in series [2] (setting [3]) stood at 90.4%.
On to `CCCCC/C=C\C/C=C\CCCCCCCC(=O)OCCCCOc1cc(CCCN2CCCCC2)cc(OCCCCOC(=O)CCCCCCC/C=C\C/C=C\CCCCC)c1` [Ex. 120, (9Z,9′Z,12Z,12′Z)-((5-(3-(piperidin-1-yl)propyl)-1,3-phenylene)bis(oxy))bis(butane-4,1-diyl)bis(octadeca-9,12-dienoate)], for which the pKa in series [1] (probe TNS, read-out: pKa) is 6.31. Besides, in series [2] (setting [3]), the “KD FVII 0.03 mg/kg” value is given as 83.7%.
Taken in the same sequence, the figures for `CCCCCCC(CCCCCC)CCCCCC(=O)OCc1cc(COC(=O)CCCCCC(CCCCCC)CCCCCC)cc(CN(C)C)c1` [Ex. 118, (5-((dimethylamino)methyl)-1,3-phenylene)bis(methylene)bis(7-hexyltridecanoate)] were 5.67 and 46.3%.
Turning to `CCCCC/C=C\C/C=C\CCCCCCCC(=O)OCCOCCOc1cc(CN(CC)CC)cc(OCCOCCOC(=O)CCCCCCC/C=C\C/C=C\CCCCC)c1` [Example 58, (9Z,9′Z,12Z,12′Z)-((((5-((diethylamino)methyl)-1,3-phenylene)bis(oxy))bis(ethane-2,1-diyl))bis(oxy))bis(ethane-2,1-diyl)bis(octadeca-9,12-dienoate)], the pKa in series [1] (listed as Ex. 58) is 6.02. The “KD FVII 0.03 mg/kg” value in series [2] (LNP Chol/DSPC/S010 45/44/9/2) turned out to be 15.25%. In addition, the “KD FVII 0.3 mg/kg” value in series [2] (setting [3]) came out at 78.1%.
In the case of `CCCCCCCCCC(=O)OCCCCCCCCOc1cc(COC(=O)CCCN(C)C)cc(OCCCCCCCCOC(=O)CCCCCCCCC)c1` [Ex. 124, ((5-(((4-(dimethylamino)butanoyl)oxy)methyl)-1,3-phenylene)bis(oxy))bis(octane-8,1-diyl)bis(decanoate)], the pKa in series [1] (probe TNS, read-out: pKa) stood at 7.11.
On the same count and under the same terms, the figure for `CCCCCCCCCC(=O)OCCCCCCCCOc1cc(COC(=O)CCN(C)C)cc(OCCCCCCCCOC(=O)CCCCCCCCC)c1` [Ex. 123] is 6.08.
Still for that read-out and setting: as for `CCCCCCCC(=O)OCCCCCCCCCCOc1cc(CN(C)C)cc(OCCCCCCCCCCOC(=O)CCCCCCC)c1OCCCCCCCCCCOC(=O)CCCCCCC` [Ex. 99, ((5-((dimethylamino)methyl)benzene-1,2,3-triyl)tris(oxy))tris(decane-10,1-diyl)trioctanoate], the figure is 5.75.
